Results taken from patent US20260232643A1, “METHODS OF TREATING SOLID TUMORS WITH MITOGEN ACTIVATED PROTEIN KINASE (MAPK) PATHWAY ALTERATIONS” (Jazz Pharmaceuticals Ireland Limited, priority 2023, published 2026).
Where a chain is given by its changes, count along the chain named. “And” between values parts separate entries of the source, which are not always exact repeats. Equal entries are not always repeated. Where two headings read alike, the source gives them in different places.

Experiments:
ARAF WT = target: T1, ARAF WT (Homo sapiens, UniProt P10398); test: PanQinase flash plate-based kinase assay
T1 sequence (P10398 1-606): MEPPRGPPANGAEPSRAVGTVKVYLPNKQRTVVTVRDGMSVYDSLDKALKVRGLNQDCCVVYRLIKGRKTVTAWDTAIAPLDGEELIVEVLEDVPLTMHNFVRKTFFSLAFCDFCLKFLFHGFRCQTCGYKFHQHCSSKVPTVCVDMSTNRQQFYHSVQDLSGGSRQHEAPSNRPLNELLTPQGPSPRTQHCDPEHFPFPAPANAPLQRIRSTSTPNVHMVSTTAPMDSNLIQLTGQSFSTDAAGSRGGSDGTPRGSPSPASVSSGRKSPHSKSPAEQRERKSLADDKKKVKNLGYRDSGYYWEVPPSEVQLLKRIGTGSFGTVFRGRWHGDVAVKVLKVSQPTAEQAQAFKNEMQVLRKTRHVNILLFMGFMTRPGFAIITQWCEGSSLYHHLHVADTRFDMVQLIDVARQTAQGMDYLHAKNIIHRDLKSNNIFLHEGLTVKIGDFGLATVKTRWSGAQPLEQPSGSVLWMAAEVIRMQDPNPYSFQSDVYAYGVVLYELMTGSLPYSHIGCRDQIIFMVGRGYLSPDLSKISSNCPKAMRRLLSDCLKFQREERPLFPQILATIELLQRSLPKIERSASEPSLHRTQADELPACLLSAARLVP

ARAF G377R = target: T2, ARAF G377R (Homo sapiens, UniProt P10398, G377R); test: PanQinase flash plate-based kinase assay
T2 sequence (P10398 1-606 G377R): T1 sequence (P10398 1-606) with G377R

BRAF WT = BRAF WT (Homo sapiens, UniProt P15056); test: PanQinase flash plate-based kinase assay
CRAF WT = CRAF WT (Homo sapiens, UniProt P04049, Y340D/Y341D); test: PanQinase flash plate-based kinase assay
BRAF V600E = BRAF V600E (Homo sapiens, UniProt P15056, V600E); test: PanQinase flash plate-based kinase assay
ARAF del 347_348 = target: T3, ARAF del 347_348 (Homo sapiens, UniProt P10398, DEL347-348); test: PanQinase flash plate-based kinase assay
T3 sequence (P10398 with tags, fused parts or gaps DEL347-348): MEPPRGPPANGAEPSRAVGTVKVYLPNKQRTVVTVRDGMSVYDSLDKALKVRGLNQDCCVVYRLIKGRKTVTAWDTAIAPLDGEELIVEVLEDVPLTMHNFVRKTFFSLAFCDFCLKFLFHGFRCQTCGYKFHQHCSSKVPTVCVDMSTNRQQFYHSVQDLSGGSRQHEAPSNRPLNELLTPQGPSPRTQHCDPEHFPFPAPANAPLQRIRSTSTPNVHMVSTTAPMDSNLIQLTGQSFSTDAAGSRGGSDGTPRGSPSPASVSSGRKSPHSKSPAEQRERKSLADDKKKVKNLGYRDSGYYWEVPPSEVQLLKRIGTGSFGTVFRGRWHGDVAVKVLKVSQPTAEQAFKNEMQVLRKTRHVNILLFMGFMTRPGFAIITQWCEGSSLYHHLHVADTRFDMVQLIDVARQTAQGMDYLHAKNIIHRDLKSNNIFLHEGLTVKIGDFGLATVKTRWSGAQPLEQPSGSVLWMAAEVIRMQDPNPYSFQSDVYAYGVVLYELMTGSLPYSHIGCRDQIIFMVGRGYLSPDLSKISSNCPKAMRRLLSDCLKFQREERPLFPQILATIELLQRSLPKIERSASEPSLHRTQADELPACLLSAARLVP

ARAF del 347_348 G387D = target: T4, ARAF del 347_348 G387D (Homo sapiens, UniProt P10398, DEL347-348/G387D); test: PanQinase flash plate-based kinase assay
T4 sequence (P10398 with tags, fused parts or gaps DEL347-348/G387D): T3 sequence (P10398 with tags, fused parts or gaps DEL347-348) with G385D

Sprague Dawley rats = settings: 0, 10, 20, or 45 mg/kg/day once daily via oral gavage
Protocol: (§1) Compound I was evaluated in GLP-compliant 28-day oral toxicity studies in 2 preclinical species, Sprague Dawley rats and beagle dogs. In the rat 28-day study, Compound I was administered at 0, 10, 20, or 45 mg/kg/day once daily via oral gavage. […] In the dog 28-day study, Compound I was administered at 0, 3.75, 7.5, or 15 mg/kg/day once daily via oral gavage.

beagle dogs = settings: 0, 3.75, 7.5, or 15 mg/kg/day once daily via oral gavage
Protocol: as §1

[1] = system: metastatic NRASQ61 mutated melanoma; assay type: in vivo, human
Protocol: This is a phase 1 study of Compound I in participants with advanced or metastatic solid tumors harboring alterations in the MAPK pathway. The study comprises 2 parts: dose exploration (Part A) and expansion (Part B).
Compound I (i.e., (S)-5-((3-(4-(4-fluorophenyl)-1H-imidazol-2-yl) chroman-6-yl)oxy)-3,4-dihydro-1,8-naphthyridin-2 (1H)-one) is orally administered to participants BID in a capsule formulation with unit dose strengths of 10 mg or 25 mg, taken approximately 12 hours apart in the morning and in the evening. Specifically, in Part A, Compound I is administered as a single dose on Cycle 1 Day 1, with no doses administered on Days 2 and 3 before proceeding with BID dosing on Day 4 and after.
Tumor response to therapy will be assessed by the investigator using RECIST v1.1. Tumor assessments will be made by CT/MRI/PE at Screening, on Day 1 of Cycle 3 (Day 57), and every 2 cycles (56 days) thereafter until Dayl of Cycle 13, after which tumor assessments will be every 3 cycles (84 days) and at the End of Treatment Visit. Tumor assessments will include all known or suspected disease sites. Imaging must include chest, abdomen, and pelvis CT or MRI scans. Imaging will be performed on the abdomen, chest, pelvis, and the site of the primary tumor if it is located elsewhere.
Dosing regimens: To assess the safety and efficacy of Compound I in the cancer treatment, Compound I was orally administered to participants at 20 mg BID (“bis in die”, or “twice a day”), 30 mg BID, 50 mg BID, 50 mg QD (“quaque die”, “once a day”), 75 mg BID, or 100 mg QD for a period of time. Treatment-related adverse events (TRAE, Grade≤2 and Grade ≥3) were monitored and recorded. The efficacy of Compound I in treating cancer was determined by using radiologic tumor assessment as per RECIST v1.1 (e.g., PET-CT or MRI scans).

[2] = system: RAS (NRAS and KRAS) and RAF (BRAF Class 2/3) mutation driven colorectal cancer, non-small cell lung cancer, melanoma, and ovarian cancer xenografts; test: Tumor growth inhibition in xenograft mice models; assay type: in vivo; settings: 10 mg/kg BID, 30 mg/kg BID, 30 mg/kg QD, 100 mg/kg QD, FIGS. 1A-E
Protocol: Vehicle was administered BID as a control.
The effect of Compound I in tumor growth inhibition was evaluated in xenograft mice models carrying pathogenic RAS (NRAS and KRAS) and RAF (BRAF Class 2/3) mutation driven colorectal cancer, non-small cell lung cancer, melanoma, and ovarian cancer.

Sequence of CRAF WT (P04049 307-648 Y340D/Y341D): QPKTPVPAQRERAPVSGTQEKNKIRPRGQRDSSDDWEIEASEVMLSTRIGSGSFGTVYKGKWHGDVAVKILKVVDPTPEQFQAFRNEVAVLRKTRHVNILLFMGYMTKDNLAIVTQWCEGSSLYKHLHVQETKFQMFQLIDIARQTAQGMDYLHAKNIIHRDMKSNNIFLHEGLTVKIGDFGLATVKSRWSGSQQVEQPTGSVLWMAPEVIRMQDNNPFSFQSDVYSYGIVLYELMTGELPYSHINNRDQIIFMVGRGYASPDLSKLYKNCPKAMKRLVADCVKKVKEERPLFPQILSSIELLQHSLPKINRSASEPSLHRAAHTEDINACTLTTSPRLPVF
Sequence of BRAF V600E (P15056 whole entry V600E): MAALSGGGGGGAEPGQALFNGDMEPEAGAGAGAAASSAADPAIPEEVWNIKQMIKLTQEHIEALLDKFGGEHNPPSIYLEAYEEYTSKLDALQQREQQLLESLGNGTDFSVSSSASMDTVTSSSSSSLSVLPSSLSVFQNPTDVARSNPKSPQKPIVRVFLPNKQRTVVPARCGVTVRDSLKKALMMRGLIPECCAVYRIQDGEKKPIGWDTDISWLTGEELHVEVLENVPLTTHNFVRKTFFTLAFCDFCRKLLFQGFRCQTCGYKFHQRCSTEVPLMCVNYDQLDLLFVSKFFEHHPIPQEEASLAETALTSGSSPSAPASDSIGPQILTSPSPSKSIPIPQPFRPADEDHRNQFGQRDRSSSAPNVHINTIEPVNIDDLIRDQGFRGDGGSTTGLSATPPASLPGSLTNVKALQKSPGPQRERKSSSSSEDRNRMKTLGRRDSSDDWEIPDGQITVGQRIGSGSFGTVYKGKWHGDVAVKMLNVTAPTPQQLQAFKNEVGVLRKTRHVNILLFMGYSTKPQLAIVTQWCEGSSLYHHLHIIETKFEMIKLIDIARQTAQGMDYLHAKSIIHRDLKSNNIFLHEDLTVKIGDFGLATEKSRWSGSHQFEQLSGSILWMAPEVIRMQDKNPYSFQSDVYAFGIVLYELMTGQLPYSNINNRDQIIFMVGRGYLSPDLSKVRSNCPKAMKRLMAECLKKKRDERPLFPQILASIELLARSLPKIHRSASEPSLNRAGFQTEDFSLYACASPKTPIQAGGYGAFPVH
Sequence of BRAF WT (P15056 whole entry): as the sequence (P15056 whole entry V600E) above, with E600V counted along it

Question: With Cc1ccc(NC(=O)c2ccnc(C(F)(F)F)c2)cc1-c1cc(OCCO)nc(N2CCOCC2)c1 [Naporafenib] as the compound, how does the IC50 (ARAF WT) read?
Answer: The IC50 was 0.0635 µM.

Question: What about the IC50 (ARAF G377R) of the same compound?
Answer: Its IC50 is 0.621 µM.

Question: And the IC50 (BRAF WT)?
Answer: Its IC50 is 0.141 µM.

Question: What about the IC50 (CRAF WT) of the same compound?
Answer: Its IC50 is 0.0097 µM.

Question: And the IC50 (BRAF V600E)?
Answer: The IC50 was 0.191 µM.

Question: And the IC50 (ARAF del 347_348)?
Answer: The IC50 was 0.154 µM.

Question: And the IC50 (ARAF del 347_348 G387D)?
Answer: Its IC50 is 0.0672 µM.

Question: What does the source list for O=C1CCc2c(Oc3ccc4c(c3)CC(c3ncc(-c5ccc(F)cc5)[nH]3)CO4)ccnc2N1 (stereo not drawn) [Compound I, 5-((3-(4-(4-fluorophenyl)-1H-imidazol-2-yl)chroman-6-yl)oxy)-3,4-dihydro-1,8-naphthyridin-2 (1H)-one]?
Answer: findings in 28-day oral toxicity study (Sprague Dawley rats): No mortality, and no clinical signs, changes in body weight or food consumption, ophthalmology, clinical pathology or macroscopic findings of toxicological relevance were noted; findings in 28-day oral toxicity study (beagle dogs): No mortality, and no clinical signs, changes in body weight or food consumption, ophthalmology, ECG, clinical pathology, macroscopic or microscopic findings of toxicological relevance were noted; IC50 (ARAF WT; average IC50 ARAF WT, PanQinase flash plate assay, kinase dead MEK K97M substrate, 0.1-3 μM ATP): 0.0157 µM and 0.0114 µM; predicted human Vss: 0.77 L/kg; predicted human CL (allometrically scaled): 0.072 L/h/kg; reduction in target lesions ([1]; after 2 months, n=1, metastatic NRASQ61 mutated melanoma, 50 mg QD): 61%; reduction in the target lesion ([1]; after 4 months (confirmation of PR), n=1, metastatic NRASQ61 mutated melanoma, 50 mg QD): 69%; PET avidity (PET/CT) ([1]; n=1, metastatic NRASQ61 mutated melanoma, 50 mg QD, FIG. 3): significant resolution of PET avidity; tumor response per RECIST v1.1 ([1]; participant (n=1), metastatic NRASQ61 mutated melanoma, 50 mg QD oral): partial response (PR); IC50 (ARAF G377R): 0.142 µM; IC50 (BRAF WT): 0.0406 µM; IC50 (CRAF WT): 0.0023 µM; IC50 (BRAF V600E): 0.0402 µM; IC50 (ARAF del 347_348): 0.0683 µM; tumor growth inhibition [2]: dose-dependent tumor growth inhibition effect; IC50 (ARAF del 347_348 G387D): 0.0204 µM

Question: Which IC50 (ARAF WT) does the source give for Cc1ccc2c(Nc3cccc(Cl)c3F)nccc2c1NC(=O)c1csc2c(N)ncnc12 [Belvarafenib] here?
Answer: The IC50 was 0.026 µM.

Question: What about the IC50 (ARAF G377R) of the same compound?
Answer: The IC50 was 0.754 µM.

Question: What about the IC50 (BRAF WT) of the same compound?
Answer: The IC50 was 0.0972 µM.

Question: What about the IC50 (CRAF WT) of the same compound?
Answer: The IC50 was 0.0091 µM.

Question: What about the IC50 (BRAF V600E) of the same compound?
Answer: The IC50 was 0.193 µM.

Question: What about the IC50 (ARAF del 347_348) of the same compound?
Answer: Its IC50 is 0.0603 µM.

Question: And the IC50 (ARAF del 347_348 G387D)?
Answer: Its IC50 is 0.0465 µM.
